The structures appear in SMILES notation.

The source of these data is patent US20240166635A1, “AMINOHETEROARYL KINASE INHIBITORS” (Anrui Biomedical Technology (Guangzhou) Co.,Ltd., priority 2020, published 2024).

Common to all, as to type: biochemical
One assay addresses CDK7/CyclinH/MAT1 (Homo sapiens (Human), UniProt P50613). The assay can be described thus: CDK7/CyclinH/MAT1 kinase inhibitory activity (Caliper mobility shift).
A further assay has as its target CDK1/CyclinB (Homo sapiens (Human), UniProt P06493). Nature of the assay: CDK1/CyclinB kinase inhibitory activity (Caliper mobility shift). Conditions: read-out: CDK1/Cyclin B1 IC50.
The next assay addresses CDK6/CyclinD1 (Homo sapiens (Human), UniProt Q00534). Nature of the assay: CDK6/CyclinD1 kinase inhibitory activity (Caliper mobility shift). Conditions: read-out: CDK6/Cyclin D1 IC50.
A further assay addresses CDK4/Cyclin D1 (Homo sapiens (Human), UniProt P11802). Nature of the assay: CDK4/CyclinD1 kinase inhibitory activity (Caliper mobility shift).
The next assay deals with CDK9/CyclinT1 (Homo sapiens (Human), UniProt P50750). The assay can be described thus: CDK9/CyclinT1 kinase inhibitory activity (Caliper mobility shift). The conditions noted are these: read-out: CDK9/Cyclin T1 IC50.
Chain of CDK9/CyclinT1 (P50750 whole entry): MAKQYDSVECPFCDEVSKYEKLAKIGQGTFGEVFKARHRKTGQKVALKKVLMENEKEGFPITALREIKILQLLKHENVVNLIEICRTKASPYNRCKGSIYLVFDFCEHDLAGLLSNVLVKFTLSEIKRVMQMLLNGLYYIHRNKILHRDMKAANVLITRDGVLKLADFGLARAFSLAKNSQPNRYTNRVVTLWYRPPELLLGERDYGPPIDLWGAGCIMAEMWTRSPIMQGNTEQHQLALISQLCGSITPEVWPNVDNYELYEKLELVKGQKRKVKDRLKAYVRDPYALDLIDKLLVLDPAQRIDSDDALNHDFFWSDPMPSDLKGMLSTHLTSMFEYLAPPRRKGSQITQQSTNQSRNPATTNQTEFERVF
Chain of CDK9/CyclinT1 (O60563 whole entry partner): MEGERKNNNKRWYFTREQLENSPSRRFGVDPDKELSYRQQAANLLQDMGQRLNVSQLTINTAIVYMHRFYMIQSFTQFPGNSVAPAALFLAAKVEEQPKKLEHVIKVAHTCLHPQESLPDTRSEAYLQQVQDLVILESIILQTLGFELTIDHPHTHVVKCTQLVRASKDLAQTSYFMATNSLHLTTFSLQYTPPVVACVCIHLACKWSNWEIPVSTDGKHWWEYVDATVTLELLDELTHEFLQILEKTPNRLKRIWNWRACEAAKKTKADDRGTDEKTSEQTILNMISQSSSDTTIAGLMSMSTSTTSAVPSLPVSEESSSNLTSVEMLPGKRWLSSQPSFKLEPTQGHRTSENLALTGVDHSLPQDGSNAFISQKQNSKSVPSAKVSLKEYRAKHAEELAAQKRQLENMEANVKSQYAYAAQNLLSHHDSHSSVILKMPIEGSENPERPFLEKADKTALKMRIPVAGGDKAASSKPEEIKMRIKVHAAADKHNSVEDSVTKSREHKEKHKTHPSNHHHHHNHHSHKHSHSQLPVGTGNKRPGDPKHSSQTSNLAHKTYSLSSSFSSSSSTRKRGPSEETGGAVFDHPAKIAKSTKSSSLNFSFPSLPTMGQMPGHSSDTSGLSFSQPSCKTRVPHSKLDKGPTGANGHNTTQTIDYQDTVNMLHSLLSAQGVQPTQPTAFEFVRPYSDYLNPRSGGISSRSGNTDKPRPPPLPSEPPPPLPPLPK
The next assay addresses CDK2/CyclinE1 (Homo sapiens (Human), UniProt P24941). Nature of the assay: CDK2/CyclinE1 kinase inhibitory activity (Caliper mobility shift). The conditions noted are these: read-out: CDK2/Cyclin El IC50.

Chain of CDK4/Cyclin D1 (P11802 whole entry): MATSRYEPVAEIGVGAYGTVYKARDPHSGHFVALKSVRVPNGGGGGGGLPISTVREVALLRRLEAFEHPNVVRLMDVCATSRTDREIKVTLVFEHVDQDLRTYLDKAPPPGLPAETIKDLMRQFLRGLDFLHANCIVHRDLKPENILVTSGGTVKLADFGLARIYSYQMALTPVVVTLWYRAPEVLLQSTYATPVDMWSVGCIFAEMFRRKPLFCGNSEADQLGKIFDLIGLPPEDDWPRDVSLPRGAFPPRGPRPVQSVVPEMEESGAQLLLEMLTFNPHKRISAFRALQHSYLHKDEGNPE
Chain of CDK4/Cyclin D1 (P24385 whole entry partner): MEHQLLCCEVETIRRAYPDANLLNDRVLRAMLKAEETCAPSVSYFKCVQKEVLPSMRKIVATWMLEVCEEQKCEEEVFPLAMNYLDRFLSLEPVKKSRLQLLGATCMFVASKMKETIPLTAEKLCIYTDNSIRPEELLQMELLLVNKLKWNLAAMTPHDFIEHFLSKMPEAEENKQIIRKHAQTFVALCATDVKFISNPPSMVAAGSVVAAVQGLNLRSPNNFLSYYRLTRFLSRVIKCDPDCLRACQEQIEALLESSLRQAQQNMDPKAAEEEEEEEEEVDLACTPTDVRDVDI
Chain of CDK1/CyclinB (P06493 whole entry): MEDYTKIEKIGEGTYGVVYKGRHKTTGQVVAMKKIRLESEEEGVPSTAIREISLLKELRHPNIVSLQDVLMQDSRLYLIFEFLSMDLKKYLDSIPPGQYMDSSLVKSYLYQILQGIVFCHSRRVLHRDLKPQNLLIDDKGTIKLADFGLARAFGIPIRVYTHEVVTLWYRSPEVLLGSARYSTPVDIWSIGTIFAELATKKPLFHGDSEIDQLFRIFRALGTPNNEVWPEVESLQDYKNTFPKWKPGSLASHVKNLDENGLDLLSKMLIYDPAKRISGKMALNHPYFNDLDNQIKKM
Chain of CDK1/CyclinB (P14635 whole entry partner): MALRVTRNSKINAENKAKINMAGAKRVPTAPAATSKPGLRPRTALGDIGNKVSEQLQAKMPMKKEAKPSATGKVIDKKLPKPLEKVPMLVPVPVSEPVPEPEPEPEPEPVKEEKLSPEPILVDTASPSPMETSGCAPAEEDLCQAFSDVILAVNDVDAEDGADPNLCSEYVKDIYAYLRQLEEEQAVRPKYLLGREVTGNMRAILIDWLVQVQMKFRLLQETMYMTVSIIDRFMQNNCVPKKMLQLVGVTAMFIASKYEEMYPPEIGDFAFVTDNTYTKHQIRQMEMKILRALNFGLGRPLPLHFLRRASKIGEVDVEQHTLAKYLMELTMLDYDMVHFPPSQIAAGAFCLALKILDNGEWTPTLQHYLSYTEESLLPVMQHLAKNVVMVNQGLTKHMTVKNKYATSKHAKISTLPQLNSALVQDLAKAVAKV
Chain of CDK6/CyclinD1 (Q00534 whole entry): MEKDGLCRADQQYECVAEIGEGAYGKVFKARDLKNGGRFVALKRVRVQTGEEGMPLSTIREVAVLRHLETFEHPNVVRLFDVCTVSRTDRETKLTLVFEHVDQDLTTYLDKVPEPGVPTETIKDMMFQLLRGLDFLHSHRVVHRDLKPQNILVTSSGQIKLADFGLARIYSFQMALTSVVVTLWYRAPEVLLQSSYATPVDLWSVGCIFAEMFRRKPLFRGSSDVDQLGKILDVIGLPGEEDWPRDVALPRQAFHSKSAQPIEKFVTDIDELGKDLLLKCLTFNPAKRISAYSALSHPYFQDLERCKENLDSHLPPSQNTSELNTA
Chain of CDK6/CyclinD1 (P24385 whole entry partner): as the sequence (P24385 whole entry partner) above
Chain of CDK7/CyclinH/MAT1 (P50613 whole entry): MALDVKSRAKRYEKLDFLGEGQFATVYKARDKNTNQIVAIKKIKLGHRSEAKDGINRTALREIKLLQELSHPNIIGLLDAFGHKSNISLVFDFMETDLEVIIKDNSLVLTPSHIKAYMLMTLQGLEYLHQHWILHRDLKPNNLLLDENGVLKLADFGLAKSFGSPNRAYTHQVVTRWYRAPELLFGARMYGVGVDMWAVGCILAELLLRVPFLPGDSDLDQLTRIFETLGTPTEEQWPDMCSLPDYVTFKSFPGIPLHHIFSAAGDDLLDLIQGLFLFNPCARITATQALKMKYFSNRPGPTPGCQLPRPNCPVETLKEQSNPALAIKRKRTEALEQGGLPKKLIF
Chain of CDK7/CyclinH/MAT1 (P51946 whole entry partner): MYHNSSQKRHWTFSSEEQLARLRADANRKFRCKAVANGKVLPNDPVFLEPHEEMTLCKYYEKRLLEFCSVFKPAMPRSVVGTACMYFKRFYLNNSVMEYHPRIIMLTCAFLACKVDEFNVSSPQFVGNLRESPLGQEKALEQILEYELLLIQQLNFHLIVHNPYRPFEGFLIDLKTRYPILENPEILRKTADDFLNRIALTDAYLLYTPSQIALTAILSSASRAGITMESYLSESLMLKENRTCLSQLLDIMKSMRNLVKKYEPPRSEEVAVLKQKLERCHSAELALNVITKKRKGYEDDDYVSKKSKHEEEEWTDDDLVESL
Chain of CDK7/CyclinH/MAT1 (P51948 whole entry partner): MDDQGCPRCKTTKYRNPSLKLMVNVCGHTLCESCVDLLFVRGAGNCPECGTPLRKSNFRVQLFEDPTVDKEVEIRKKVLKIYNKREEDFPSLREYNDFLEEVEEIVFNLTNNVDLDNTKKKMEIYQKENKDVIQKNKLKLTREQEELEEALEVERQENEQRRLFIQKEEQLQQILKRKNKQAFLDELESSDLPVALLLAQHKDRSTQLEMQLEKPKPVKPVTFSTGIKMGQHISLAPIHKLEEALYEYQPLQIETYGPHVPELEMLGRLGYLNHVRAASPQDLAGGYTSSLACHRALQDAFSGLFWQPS

On to `NS(=O)(=O)c1ccc(Nc2ncc(C(F)(F)F)c(OC3CCCCC3O)n2)cc1` (single isomer, unassigned) [Example 111b], for which the IC50 on CDK7/CyclinH/MAT1 was 100 to 1000 nM; on CDK1/CyclinB it was less than 10 nM; on CDK6/CyclinD1, 10 to 100 nM; on CDK4/Cyclin D1, 10 to 100 nM; on CDK9/CyclinT1, 10 to 100 nM; at CDK2/CyclinE1 it was less than 10 nM.

Turning to `CC1CCCC(O)C1Oc1nc(Nc2ccc(S(N)(=O)=O)cc2)ncc1C(F)(F)F` (single isomer, unassigned) [Example 112a], the IC50 on CDK7/CyclinH/MAT1 is no less than 1000 nM; on CDK1/CyclinB, 10 to 100 nM; at CDK6/CyclinD1, 100 to 1000 nM; at CDK4/Cyclin D1, 100 to 1000 nM; at CDK9/CyclinT1 it was 100 to 1000 nM; on CDK2/CyclinE1, less than 10 nM.

Consider `NS(=O)(=O)c1ccc(Nc2ncc(C(F)(F)F)c(OC3CCOCC3O)n2)cc1` (single isomer, unassigned) [Example 114a], for which the IC50 on CDK7/CyclinH/MAT1 was 100 to 1000 nM; at CDK1/CyclinB it was 10 to 100 nM; on CDK6/CyclinD1, 100 to 1000 nM; at CDK4/Cyclin D1, 100 to 1000 nM; at CDK9/CyclinT1, 10 to 100 nM; on CDK2/CyclinE1, less than 10 nM.

With `CNS(=O)(=O)c1ccc(Nc2ncc(C(F)(F)F)c(OC3CCOCC3O)n2)cc1` (single isomer, unassigned) [Example 116a], the IC50 at CDK7/CyclinH/MAT1 is 100 to 1000 nM; on CDK1/CyclinB, 10 to 100 nM; at CDK6/CyclinD1 it was 100 to 1000 nM; on CDK4/Cyclin D1, 100 to 1000 nM; on CDK9/CyclinT1, 100 to 1000 nM; at CDK2/CyclinE1, less than 10 nM.

Regarding `[2H]C([2H])([2H])NS(=O)(=O)c1ccc(Nc2ncc(C(F)(F)F)c(OC3COCCC3O)n2)cc1` (single isomer, unassigned) [Example 117a], the IC50 on CDK7/CyclinH/MAT1 is 100 to 1000 nM; on CDK1/CyclinB, 10 to 100 nM; on CDK6/CyclinD1, 100 to 1000 nM; at CDK4/Cyclin D1, 100 to 1000 nM; on CDK9/CyclinT1 it was 100 to 1000 nM; on CDK2/CyclinE1, less than 10 nM.

As to `CS(=O)(=O)N1CCC(Nc2ncc(C(F)(F)F)c(OC3CCCCC3O)n2)CC1` (single isomer, unassigned) [Example 120a], the IC50 was 10 to 100 nM at CDK7/CyclinH/MAT1; 10 to 100 nM at CDK1/CyclinB; 10 to 100 nM on CDK6/CyclinD1; 10 to 100 nM on CDK4/Cyclin D1; 100 to 1000 nM on CDK9/CyclinT1; less than 10 nM at CDK2/CyclinE1.

Consider `CNS(=O)(=O)N1CCC(Nc2ncc(C(F)(F)F)c(OC3CCCCCC3O)n2)CC1` (single isomer, unassigned) [Example 123b], for which the IC50 on CDK7/CyclinH/MAT1 was 100 to 1000 nM; on CDK1/CyclinB, 10 to 100 nM; at CDK6/CyclinD1, 10 to 100 nM; at CDK4/Cyclin D1 it was 10 to 100 nM; at CDK9/CyclinT1 it was 100 to 1000 nM; on CDK2/CyclinE1, less than 10 nM.

With `CC1(O)COCCC1Oc1nc(NC2CCN(S(C)(=O)=O)CC2)ncc1C(F)(F)F` (single isomer, unassigned) [Example 124a], the IC50 on CDK7/CyclinH/MAT1 was less than 10 nM; on CDK1/CyclinB, 10 to 100 nM; on CDK6/CyclinD1, 10 to 100 nM; on CDK4/Cyclin D1, 10 to 100 nM; on CDK9/CyclinT1, 10 to 100 nM; at CDK2/CyclinE1, less than 10 nM.

Consider `Cn1cc(S(=O)(=O)N2CCC(Nc3ncc(C(F)(F)F)c(OC4CCOCC4(C)O)n3)CC2)cn1` (single isomer, unassigned) [Example 125a], for which the IC50 at CDK7/CyclinH/MAT1 was less than 10 nM; on CDK1/CyclinB it was less than 10 nM; at CDK6/CyclinD1, less than 10 nM; on CDK4/Cyclin D1 it was less than 10 nM; on CDK9/CyclinT1 it was 10 to 100 nM; on CDK2/CyclinE1, less than 10 nM.

In the case of `O=S(=O)(NC1CCOCC1)c1ccc(Nc2ncc(Cl)c(O[C@@H]3CCC[C@@H]3O)n2)cc1` (single isomer, unassigned) [Example 130a, cis-4-((5-chloro-4-((2-hydroxycyclopentyl)oxy)pyrimidin-2-yl)amino)-N-(tetrahydro-2H-pyran-4-yl)benzenesulfonamide], the IC50 at CDK7/CyclinH/MAT1 was 100 to 1000 nM; at CDK1/CyclinB it was 10 to 100 nM; on CDK6/CyclinD1, 100 to 1000 nM; at CDK4/Cyclin D1, 100 to 1000 nM; at CDK9/CyclinT1, 100 to 1000 nM; at CDK2/CyclinE1 it was less than 10 nM.

Turning to `CC1(NS(=O)(=O)c2ccc(Nc3ncc(Br)c(O[C@@H]4CCC[C@@H]4O)n3)cc2)COC1` (single isomer, unassigned) [Example 131a, cis-4-((5-bromo-4-((2-hydroxycyclopentyl)oxy)pyrimidin-2-yl)amino)-N-(3-methyloxetan-3-yl)benzenesulfonamide], the IC50 on CDK7/CyclinH/MAT1 is 100 to 1000 nM; on CDK1/CyclinB, 10 to 100 nM; on CDK6/CyclinD1, 100 to 1000 nM; on CDK4/Cyclin D1 it was 100 to 1000 nM; at CDK9/CyclinT1, 100 to 1000 nM; on CDK2/CyclinE1, less than 10 nM.

Regarding `Cc1cnc(Nc2ccc(S(N)(=O)=O)cc2)nc1O[C@@H]1CCC[C@@H]1O` (single isomer, unassigned) [Example 132a, cis-4-((4-((2-hydroxycyclopentyl)oxy)-5-methylpyrimidin-2-yl)amino)benzenesulfonamide], the IC50 at CDK7/CyclinH/MAT1 was 100 to 1000 nM; on CDK1/CyclinB, 100 to 1000 nM; at CDK6/CyclinD1, 100 to 1000 nM; on CDK4/Cyclin D1, 100 to 1000 nM; on CDK9/CyclinT1 it was 100 to 1000 nM; at CDK2/CyclinE1 it was less than 10 nM.

In the case of `CCc1cnc(Nc2ccc(S(N)(=O)=O)cc2)nc1O[C@@H]1CCC[C@@H]1O` (single isomer, unassigned) [Example 133a, cis-4-((5-ethyl-4-((2-hydroxycyclopentyl)oxy)pyrimidin-2-yl)amino)benzenesulfonamide], the IC50 is 100 to 1000 nM at CDK7/CyclinH/MAT1; 10 to 100 nM at CDK1/CyclinB; 10 to 100 nM at CDK6/CyclinD1; 100 to 1000 nM at CDK4/Cyclin D1; 10 to 100 nM on CDK9/CyclinT1; less than 10 nM on CDK2/CyclinE1.

As to `CC(C)NS(=O)(=O)c1ccc(Nc2ncc(C3CC3)c(O[C@@H]3CCC[C@@H]3O)n2)cc1` (single isomer, unassigned) [Example 134a, cis-4-((5-cyclopropyl-4-((2-hydroxycyclopentyl)oxy)pyrimidin-2-yl)amino)-N-isopropylbenzenesulfonamide], the IC50 was 100 to 1000 nM on CDK7/CyclinH/MAT1; 10 to 100 nM at CDK1/CyclinB; 100 to 1000 nM on CDK6/CyclinD1; 100 to 1000 nM at CDK4/Cyclin D1; 100 to 1000 nM at CDK9/CyclinT1; less than 10 nM at CDK2/CyclinE1.

Turning to `[2H]C([2H])([2H])NS(=O)(=O)c1ccc(Nc2ncc(C(=C)F)c(O[C@@H]3CCC[C@@H]3O)n2)cc1` (single isomer, unassigned) [Example 135a, cis-4-((5-(1-fluorovinyl)-4-((2-hydroxycyclopentyl)oxy)pyrimidin-2-yl)amino)-N-(methyl-d3)benzenesulfonamide], the IC50 at CDK7/CyclinH/MAT1 is 100 to 1000 nM; at CDK1/CyclinB, 10 to 100 nM; on CDK6/CyclinD1, 100 to 1000 nM; at CDK4/Cyclin D1, 100 to 1000 nM; on CDK9/CyclinT1 it was 100 to 1000 nM; at CDK2/CyclinE1, less than 10 nM.

With `CNS(=O)(=O)c1ccc(Nc2ncc(Cl)c(OC3CCCC3O)n2)cc1` (single isomer, unassigned) [Example 137a], the IC50 on CDK7/CyclinH/MAT1 is 100 to 1000 nM; on CDK1/CyclinB, 10 to 100 nM; at CDK6/CyclinD1, 10 to 100 nM; on CDK4/Cyclin D1, 100 to 1000 nM; at CDK9/CyclinT1 it was 100 to 1000 nM; at CDK2/CyclinE1, less than 10 nM.

As for `CC(C)NS(=O)(=O)c1ccc(Nc2ncc(Cl)c(OC3CCCC3O)n2)cc1` (single isomer, unassigned) [Example 138a], the IC50 was 100 to 1000 nM on CDK7/CyclinH/MAT1; 10 to 100 nM at CDK1/CyclinB; 100 to 1000 nM on CDK6/CyclinD1; 100 to 1000 nM on CDK4/Cyclin D1; 100 to 1000 nM at CDK9/CyclinT1; less than 10 nM on CDK2/CyclinE1.
